Measurements taken from patent US20260015350A1, “AZAQUINAZOLINE PAN-KRAS INHIBITORS” (Mirati Therapeutics, Inc., priority 2022, published 2026).

Key:
KRas^G12V = target: T1, KRas^G12V (Homo sapiens, UniProt P01116, G12V); test: KRas binding assay (TR-FRET tracer displacement), KRas G12V
T1 construct: Biotinylated KRas (corresponding to amino acids 1-169, produced at Accelegan Inc.); biotin (biotinylated); purchased Accelegan Inc

KRas^G12R = target: T2, KRas^G12R (Homo sapiens, UniProt P01116, G12R); test: KRas binding assay (TR-FRET tracer displacement), KRas G12R
T2 construct: Biotinylated KRas (corresponding to amino acids 1-169, produced at Accelegan Inc.); biotin (biotinylated); purchased Accelegan Inc
T2 sequence (P01116 1-169 isoform P01116-2 G12R): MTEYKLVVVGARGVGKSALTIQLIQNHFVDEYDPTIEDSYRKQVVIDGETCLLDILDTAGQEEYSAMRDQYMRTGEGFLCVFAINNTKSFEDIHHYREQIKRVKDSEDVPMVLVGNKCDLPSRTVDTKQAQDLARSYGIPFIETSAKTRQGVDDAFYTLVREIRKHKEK

KRas^G12D = target: T3, KRas^G12D (Homo sapiens, UniProt P01116, G12D); test: KRas binding assay (TR-FRET tracer displacement), KRas G12D
T3 construct: Biotinylated KRas (corresponding to amino acids 1-169, produced at Accelegan Inc.); biotin (biotinylated); purchased Accelegan Inc
T3 sequence (P01116 1-169 isoform P01116-2 G12D): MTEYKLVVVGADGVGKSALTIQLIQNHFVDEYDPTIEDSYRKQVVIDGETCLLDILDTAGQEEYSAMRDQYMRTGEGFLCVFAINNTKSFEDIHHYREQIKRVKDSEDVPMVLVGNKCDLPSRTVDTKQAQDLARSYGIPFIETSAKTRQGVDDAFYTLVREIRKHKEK

[1] = system: KRas-mediated phosphorylation of ERK in H727 cells; test: Inhibition of KRas-mediated phosphorylation of ERK (Cisbio HTRF pERK), H727 cells; format: cell-based; conditions: Homo sapiens, NCI-H727, H727 cells; HTRF pERK
Outline: (§1)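 Each compound was tested at 10 concentrations, threefold apart with 10 uM the highest, for 3 hrs on 6,000 seeded cells; final DMSO was 0.8% and Trametinib (0.2 uM) served as Min control. Lysed cells were analysed for pERK by HTRF.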

[2] = system: KRas-mediated phosphorylation of ERK in AsPC-1 cells; test: Inhibition of KRas-mediated phosphorylation of ERK (Cisbio HTRF pERK), AsPC-1 cells; format: cell-based; conditions: Homo sapiens, ASPC1, AsPC-1 cells; HTRF pERK
Outline: as §1

T1 sequence (P01116 1-169 isoform P01116-2 G12V): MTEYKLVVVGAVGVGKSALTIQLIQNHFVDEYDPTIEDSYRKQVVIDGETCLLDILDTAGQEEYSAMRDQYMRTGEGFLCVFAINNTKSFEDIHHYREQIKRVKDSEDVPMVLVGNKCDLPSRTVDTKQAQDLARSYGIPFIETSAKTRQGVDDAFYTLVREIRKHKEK

SMILES	IC50 (KRas^G12V) [nM]	IC50 (KRas^G12R) [nM]	IC50 (KRas^G12D) [nM]	IC50 [1] [nM]	IC50 [2] [nM]
CCc1c(F)ccc2cc(O)cc(-c3ncc4c(NCc5cc(C(=O)N(C)C)nn5[C@H]5C[C@H](O)C5)nc(OC[C@@]56CCCN5C[C@H](F)C6)nc4c3F)c12 [Example 682, 5-(((7-(8-ethyl-7-fluoro-3-hydroxynaphthalen-1-yl)-8-fluoro-2-(((2R,7aS)-2-fluorotetrahydro-1H-pyrrolizin-7a(5H)-yl)methoxy)pyrido[4,3-d]pyrimidin-4-yl)amino)methyl)-1-(trans-3-hydroxycyclobutyl)-N,N-dimethyl-1H-pyrazole-3-carboxamide]	192	541	710	> 10000	> 10000
CCc1c(F)ccc2cc(O)cc(-c3ncc4c(NCc5cc(C(=O)N(C)C)nn5C[C@H]5C[C@@H](O)C5)nc(OC[C@@]56CCCN5C[C@H](F)C6)nc4c3F)c12 [Example 687, 5-(((7-(8-ethyl-7-fluoro-3-hydroxynaphthalen-1-yl)-8-fluoro-2-(((2R,7aS)-2-fluorohexahydro-1H-pyrrolizin-7a-yl)methoxy)pyrido[4,3-d]pyrimidin-4-yl)amino)methyl)-1-((cis-3-hydroxycyclobutyl)methyl)-N,N-dimethyl-1H-pyrazole-3-carboxamide]	145	175	405	> 10000	> 10000
CCc1c(F)ccc2cc(O)cc(-c3ncc4c(N5CCC(N6C(=O)OC7CN(C(C)=O)CC76)CC5)nc(OC[C@@]56CCCN5C[C@H](F)C6)nc4c3F)c12 (stereo partly drawn) [Example 689, 5-acetyl-3-(1-(7-(8-ethyl-7-fluoro-3-hydroxynaphthalen-1-yl)-8-fluoro-2-(((2R,7aS)-2-fluorotetrahydro-1H-pyrrolizin-7a(5H)-yl)methoxy)pyrido[4,3-d]pyrimidin-4-yl)piperidin-4-yl)hexahydro-2H-pyrrolo[3,4-d]oxazol-2-one]	98	349	1650	> 10000	> 10000
CCc1c(F)ccc2cc(O)cc(-c3ncc4c(N5CC6C(=O)NC(=O)C6C5)nc(OC[C@]56CCCN5[C@H](COC(=O)N(C)C)CC6)nc4c3F)c12 (stereo partly drawn) [Example 708, ((3S,7aR)-7a-(((4-(4,6-dioxohexahydropyrrolo[3,4-c]pyrrol-2(1H)-yl)-7-(8-ethyl-7-fluoro-3-hydroxynaphthalen-1-yl)-8-fluoropyrido[4,3-d]pyrimidin-2-yl)oxy)methyl)hexahydro-1H-pyrrolizin-3-yl)methyl dimethylcarbamate]	42900	39800	19900	> 10000	> 10000
CCc1c(F)ccc2cc(O)cc(-c3ncc4c(N5CCC[C@@](C)(O)C5)nc(OCC56CC5CCCN(C)C6)nc4c3F)c12 (stereo partly drawn) [Example 828, (3R)-1-(7-(8-ethyl-7-fluoro-3-hydroxynaphthalen-1-yl)-8-fluoro-2-((3-methyl-3-azabicyclo[5.1.0]octan-1-yl)methoxy)pyrido[4,3-d]pyrimidin-4-yl)-3-methylpiperidin-3-ol]	12700	21400	11400	> 10000	> 10000
CCc1c(F)ccc2cc(O)cc(-c3ncc4c(N5CCC(Cc6cncn6C)C5)nc(OC[C@@]56CCCN5C[C@H](F)C6)nc4c3F)c12 (stereo partly drawn) [Example 829, 5-ethyl-6-fluoro-4-(8-fluoro-2-(((2R,7aS)-2-fluorotetrahydro-1H-pyrrolizin-7a(5H)-yl)methoxy)-4-(3-((1-methyl-1H-imidazol-5-yl)methyl)pyrrolidin-1-yl)pyrido[4,3-d]pyrimidin-7-yl)naphthalen-2-ol]	195	460	939	> 10000	> 10000
CCc1c(F)ccc2cc(O)cc(-c3ncc4c(N5CCCCCC(P(C)(C)=O)C5)nc(OC[C@@]56CCCN5C[C@H](F)C6)nc4c3F)c12 (stereo partly drawn) [Example 864, (1-(7-(8-ethyl-7-fluoro-3-hydroxynaphthalen-1-yl)-8-fluoro-2-(((2R,7aS)-2-fluorotetrahydro-1H-pyrrolizin-7a(5H)-yl)methoxy)pyrido[4,3-d]pyrimidin-4-yl)azocan-3-yl)dimethylphosphine oxide]	946	1790	2130	> 10000	> 10000
CCc1c(F)ccc2cc(O)cc(-c3ncc4c(N5CCn6ncc(C#N)c6C5)nc(OC[C@@]56CCCN5C[C@H](F)C6)nc4c3F)c12 [Example 865, 5-(7-(8-ethyl-7-fluoro-3-hydroxynaphthalen-1-yl)-8-fluoro-2-(((2R,7aS)-2-fluorotetrahydro-1H-pyrrolizin-7a(5H)-yl)methoxy)pyrido[4,3-d]pyrimidin-4-yl)-4,5,6,7-tetrahydropyrazolo[1,5-a]pyrazine-3-carbonitrile]	310	282	809	> 10000	7700

The next molecules have a lower IC50 (KRas^G12V) than those just listed; values first:

IC50 (KRas^G12V) [nM]	IC50 (KRas^G12R) [nM]	IC50 (KRas^G12D) [nM]	IC50 [1] [nM]	IC50 [2] [nM]	SMILES
6	5	21	8840	> 10000	CCc1c(F)ccc2cc(O)cc(-c3ncc4c(NCc5cc(C(=O)N(C)C)nn5C[C@H]5C[C@H](O)C5)nc(OC[C@@]56CCCN5C[C@H](F)C6)nc4c3F)c12 [Example 686, 5-(((7-(8-ethyl-7-fluoro-3-hydroxynaphthalen-1-yl)-8-fluoro-2-(((2R,7aS)-2-fluorohexahydro-1H-pyrrolizin-7a-yl)methoxy)pyrido[4,3-d]pyrimidin-4-yl)amino)methyl)-1-((trans-3-hydroxycyclobutyl)methyl)-N,N-dimethyl-1H-pyrazole-3-carboxamide]
42	160	357	> 10000	> 10000	CCc1c(F)ccc2cc(O)cc(-c3ncc4c(NCc5cc(C(=O)N(C)C)n(CC6CC(O)C6)n5)nc(OC[C@@]56CCCN5C[C@H](F)C6)nc4c3F)c12 (stereo partly drawn) [Example 688, 3-(((7-(8-ethyl-7-fluoro-3-hydroxynaphthalen-1-yl)-8-fluoro-2-(((2R,7aS)-2-fluorohexahydro-1H-pyrrolizin-7a-yl)methoxy)pyrido[4,3-d]pyrimidin-4-yl)amino)methyl)-1-((3-hydroxycyclobutyl)methyl)-N,N-dimethyl-1H-pyrazole-5-carboxamide]
2	6	5	> 10000	> 10000	CCc1c(F)ccc2cc(O)cc(-c3ncc4c(NCc5cc(C(=O)N(C)C)nn5C5CS(=O)(=O)C5)nc(OC[C@@]56CCCN5C[C@H](F)C6)nc4c3F)c12 [Example 691, 1-(1,1-dioxidothietan-3-yl)-5-(((7-(8-ethyl-7-fluoro-3-hydroxynaphthalen-1-yl)-8-fluoro-2-(((2R,7aS)-2-fluorohexahydro-1H-pyrrolizin-7a-yl)methoxy)pyrido[4,3-d]pyrimidin-4-yl)amino)methyl)-N,N-dimethyl-1H-pyrazole-3-carboxamide]
25	38	509	> 10000	> 10000	CCc1c(F)ccc2cc(O)cc(-c3ncc4c(NCc5cn(C(=O)N(C)C)nc5NC(=O)C5CC(O)C5)nc(OC[C@@]56CCCN5C[C@H](F)C6)nc4c3F)c12 (stereo partly drawn) [Example 693, 4-(((7-(8-ethyl-7-fluoro-3-hydroxynaphthalen-1-yl)-8-fluoro-2-(((2R,7aS)-2-fluorohexahydro-1H-pyrrolizin-7a-yl)methoxy)pyrido[4,3-d]pyrimidin-4-yl)amino)methyl)-3-(3-hydroxycyclobutanecarboxamido)-N,N-dimethyl-1H-pyrazole-1-carboxamide]
4	3	23	> 10000	> 10000	CN(C)C(=O)n1cc(CNc2nc(OC[C@@]34CCCN3C[C@H](F)C4)nc3c(F)c(-c4cc(O)cc5ccc(F)c(Cl)c45)ncc23)c(NC(=O)[C@H]2C[C@H](O)C2)n1 [Example 775, 4-(((7-(8-chloro-7-fluoro-3-hydroxynaphthalen-1-yl)-8-fluoro-2-(((2R,7aS)-2-fluorohexahydro-1H-pyrrolizin-7a-yl)methoxy)pyrido[4,3-d]pyrimidin-4-yl)amino)methyl)-3-((1r,3S)-3-hydroxycyclobutanecarboxamido)-N,N-dimethyl-1H-pyrazole-1-carboxamide]
< 2	4	< 2	2550	1080	CCc1c(F)ccc2cc(O)cc(-c3ncc4c(N5CCC[C@@](C)(O)C5)nc(OCC5(CN(C)C)CC5CO)nc4c3F)c12 (stereo partly drawn) [Example 813, (3R)-1-(2-((1-((dimethylamino)methyl)-2-(hydroxymethyl)cyclopropyl)methoxy)-7-(8-ethyl-7-fluoro-3-hydroxynaphthalen-1-yl)-8-fluoropyrido[4,3-d]pyrimidin-4-yl)-3-methylpiperidin-3-ol]
3	3	8	> 10000	> 10000	O=C1NS(=O)(=O)NC12CCCN(c1nc(OC[C@@]34CCCN3C[C@H](F)C4)nc3c(F)c(-c4cc(O)cc5ccc(F)c(Cl)c45)ncc13)C2 (stereo partly drawn) [Example 816, 7-(7-(8-chloro-7-fluoro-3-hydroxynaphthalen-1-yl)-8-fluoro-2-(((2R,7aS)-2-fluorotetrahydro-1H-pyrrolizin-7a(5H)-yl)methoxy)pyrido[4,3-d]pyrimidin-4-yl)-2-thia-1,3,7-triazaspiro[4.5]decan-4-one 2,2-dioxide]
